Measurements from ChEMBL document CHEMBL1201862, “PubChem BioAssay data set” (2004).
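Interpolation was linear, between the two tested concentrations surrounding the appropriate level; five concentrations were tested over 48 hours in 96-well plates. GI50: concentration for 50% inhibition of growth.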 The source made the active and inactive calls. No stated cut-off is given here; in the data, active = GI50 up to about 1.1 µM and inactive = higher.

Key:
Test in all cases: growth of human tumour cells (NCI), 48 h
SK-OV-3 = tested on: SK-OV-3
HCT-116 = tested on: HCT-116
ACHN = tested on: ACHN
M14 = tested on: M14
786-0 = tested on: 786-0
U-251 = tested on: U-251
UO-31 = tested on: UO-31
SNB-75 = tested on: SNB-75
NCI-H226 = tested on: NCI-H226
EKVX = tested on: EKVX
HL-60 = tested on: HL-60
SW-620 = tested on: SW-620
CCRF-CEM = tested on: CCRF-CEM
CAKI-1 = tested on: CAKI-1
HOP-92 = tested on: HOP-92
A498 = tested on: A498
SF-268 = tested on: SF-268
OVCAR-4 = tested on: OVCAR-4
SR = tested on: SR

Compound | GI50 (SK-OV-3) | GI50 (HCT-116) | GI50 (ACHN) | GI50 (M14) | GI50 (786-0) | GI50 (U-251) | GI50 (UO-31) | GI50 (SNB-75) | GI50 (NCI-H226) | GI50 (EKVX) | GI50 (HL-60) | GI50 (SW-620) | GI50 (CCRF-CEM) | GI50 (CAKI-1) | GI50 (HOP-92) | GI50 (A498) | GI50 (SF-268) | GI50 (OVCAR-4) | GI50 (SR)
CC(=O)NC1CC2Oc3ccc(C)cc3C(C)(O2)C1O (stereo not drawn) | > 100 µM (inactive) | > 100 µM (inactive) | > 100 µM (inactive) | > 100 µM (inactive) | > 100 µM (inactive) | > 100 µM (inactive) | > 100 µM (inactive) | > 100 µM (inactive) | > 100 µM (inactive) | > 100 µM (inactive) | > 100 µM (inactive) | > 100 µM (inactive) | > 100 µM (inactive) | – | – | – | – | – | –
CC(=O)O/C=C(/C=C/OC(C)=O)C(C/C=C(\C)C#CC=C(C)C)OC(C)=O (stereo not drawn) | > 100 µM (inactive) | 18.3 µM (inactive) | 61.1 µM (inactive) | 34.1 µM (inactive) | 36.6 µM (inactive) | 38.5 µM (inactive) | 58.2 µM (inactive) | – | > 100 µM (inactive) | 93.5 µM (inactive) | 8.51 µM (inactive) | 42.3 µM (inactive) | 26.1 µM (inactive) | > 100 µM (inactive) | 36.6 µM (inactive) | > 100 µM (inactive) | > 100 µM (inactive) | 38.4 µM (inactive) | –
O=C(NCCCOC(=O)CCCCCCCCC(=O)OCCCNC(=O)NC(=O)c1c[nH]c(=O)[nH]c1=O)NC(=O)c1c[nH]c(=O)[nH]c1=O | > 100 µM (inactive) | > 100 µM (inactive) | > 100 µM (inactive) | > 100 µM (inactive) | > 100 µM (inactive) | > 100 µM (inactive) | – | – | – | > 100 µM (inactive) | > 100 µM (inactive) | > 100 µM (inactive) | > 100 µM (inactive) | > 100 µM (inactive) | > 100 µM (inactive) | > 100 µM (inactive) | > 100 µM (inactive) | > 100 µM (inactive) | –
CC(C)OP(=O)(OC(C)C)c1nc(-c2ccccc2)n(-c2ccc([N+](=O)[O-])cc2)n1 | > 100 µM (inactive) | > 100 µM (inactive) | > 100 µM (inactive) | > 100 µM (inactive) | – | > 100 µM (inactive) | > 100 µM (inactive) | > 100 µM (inactive) | 31.3 µM (inactive) | > 100 µM (inactive) | > 100 µM (inactive) | > 100 µM (inactive) | > 100 µM (inactive) | > 100 µM (inactive) | > 100 µM (inactive) | > 100 µM (inactive) | > 100 µM (inactive) | > 100 µM (inactive) | –
CCN(CC)CC1CCCCCCCCCCC1=O (stereo not drawn) | – | > 100 µM (inactive) | > 100 µM (inactive) | > 100 µM (inactive) | > 100 µM (inactive) | > 100 µM (inactive) | > 100 µM (inactive) | 42.3 µM (inactive) | > 100 µM (inactive) | > 100 µM (inactive) | > 100 µM (inactive) | > 100 µM (inactive) | > 100 µM (inactive) | – | – | > 100 µM (inactive) | > 100 µM (inactive) | > 100 µM (inactive) | > 100 µM (inactive)
O=C(Nc1ccc(/N=N/c2ccccc2)cc1)Sc1ccccc1C(=O)O | – | 57.1 µM (inactive) | > 100 µM (inactive) | > 100 µM (inactive) | > 100 µM (inactive) | > 100 µM (inactive) | > 100 µM (inactive) | > 100 µM (inactive) | > 100 µM (inactive) | > 100 µM (inactive) | 1.7 µM (inactive) | > 100 µM (inactive) | > 10 µM (inactive) | > 100 µM (inactive) | – | > 100 µM (inactive) | > 100 µM (inactive) | > 100 µM (inactive) | > 100 µM (inactive)
CCCCS(=O)(=O)Nc1ccc(Nc2c3ccccc3nc3ccccc23)c(OC)c1 | 5.07 µM (inactive) | 1.73 µM (inactive) | – | – | – | 0.773 µM (active) | 1.5 µM (inactive) | 1.52 µM (inactive) | 0.881 µM (active) | 1.91 µM (inactive) | 0.183 µM (active) | 0.675 µM (active) | 0.338 µM (active) | 0.574 µM (active) | 2.15 µM (inactive) | 2.05 µM (inactive) | 2.25 µM (inactive) | 5.6 µM (inactive) | –
O=S(OC12CC3CC(CC(C3)C1)C2)c1cc(Cl)cc(Cl)c1OCc1ccccc1 (stereo not drawn) | > 100 µM (inactive) | > 100 µM (inactive) | > 100 µM (inactive) | > 100 µM (inactive) | – | > 100 µM (inactive) | > 100 µM (inactive) | > 100 µM (inactive) | – | > 100 µM (inactive) | > 100 µM (inactive) | – | > 100 µM (inactive) | – | – | > 100 µM (inactive) | > 100 µM (inactive) | > 100 µM (inactive) | > 100 µM (inactive)
CCOC(=O)C(=C=C=C(c1ccccc1)c1ccccc1)C(=O)OCC | 23.2 µM (inactive) | 18.5 µM (inactive) | 21.4 µM (inactive) | 20.6 µM (inactive) | 17.8 µM (inactive) | 17.3 µM (inactive) | 18.6 µM (inactive) | 3.87 µM (inactive) | 15.5 µM (inactive) | 26.7 µM (inactive) | 15.4 µM (inactive) | 21.5 µM (inactive) | 3.52 µM (inactive) | – | 15.1 µM (inactive) | 48.4 µM (inactive) | 25.8 µM (inactive) | 18.3 µM (inactive) | –
CC(=O)CCC1(c2ccccc2)OC(=O)C(C#N)=C1c1ccccc1 (stereo not drawn) | > 100 µM (inactive) | 47.6 µM (inactive) | > 100 µM (inactive) | > 100 µM (inactive) | > 100 µM (inactive) | 88.1 µM (inactive) | 29.2 µM (inactive) | 29.4 µM (inactive) | – | > 100 µM (inactive) | – | > 100 µM (inactive) | 43.5 µM (inactive) | – | 50 µM (inactive) | > 100 µM (inactive) | 70 µM (inactive) | 80.4 µM (inactive) | –
COc1ccc2c(c1)CCCN2CCCCCCCCCCN(CCC(C)C)CCC(C)C | 19.3 µM (inactive) | – | 10.9 µM (inactive) | 13.3 µM (inactive) | 14.2 µM (inactive) | 13.2 µM (inactive) | 3.11 µM (inactive) | – | 14 µM (inactive) | 6.44 µM (inactive) | 2.9 µM (inactive) | 12.6 µM (inactive) | 7.29 µM (inactive) | 14.7 µM (inactive) | 4.34 µM (inactive) | 16.7 µM (inactive) | 11.6 µM (inactive) | 5.61 µM (inactive) | –
COc1ccccc1CC(C)N (stereo not drawn) | > 100 µM (inactive) | > 100 µM (inactive) | > 100 µM (inactive) | > 100 µM (inactive) | > 100 µM (inactive) | > 100 µM (inactive) | > 100 µM (inactive) | > 100 µM (inactive) | > 100 µM (inactive) | > 100 µM (inactive) | > 100 µM (inactive) | > 100 µM (inactive) | > 100 µM (inactive) | > 100 µM (inactive) | > 100 µM (inactive) | > 100 µM (inactive) | > 100 µM (inactive) | > 100 µM (inactive) | –
CC1NCCc2c1[nH]c1cc(O)ccc21 (stereo not drawn) | > 100 µM (inactive) | > 100 µM (inactive) | > 100 µM (inactive) | > 100 µM (inactive) | > 100 µM (inactive) | – | > 100 µM (inactive) | > 100 µM (inactive) | > 100 µM (inactive) | > 100 µM (inactive) | > 100 µM (inactive) | > 100 µM (inactive) | > 100 µM (inactive) | > 100 µM (inactive) | > 100 µM (inactive) | > 100 µM (inactive) | > 100 µM (inactive) | > 100 µM (inactive) | –
CCOC(=O)C1Nc2ccc([N+](=O)[O-])cc2[C@H]2OCC[C@@H]12 (stereo partly drawn) | > 100 µM (inactive) | > 100 µM (inactive) | > 100 µM (inactive) | > 100 µM (inactive) | > 100 µM (inactive) | > 100 µM (inactive) | – | > 100 µM (inactive) | > 100 µM (inactive) | > 100 µM (inactive) | > 100 µM (inactive) | > 100 µM (inactive) | > 100 µM (inactive) | > 100 µM (inactive) | – | > 100 µM (inactive) | > 100 µM (inactive) | > 100 µM (inactive) | –
Nc1nc(O)c2ncn(C3OC(CO)C(O)C3O)c2n1 (stereo not drawn) | 95.7 µM (inactive) | 68.1 µM (inactive) | – | – | – | 16.1 µM (inactive) | 63.7 µM (inactive) | 15.4 µM (inactive) | 72.6 µM (inactive) | 10.2 µM (inactive) | 37.6 µM (inactive) | 76.7 µM (inactive) | 23.9 µM (inactive) | 77.1 µM (inactive) | – | 3.81 µM (inactive) | 74.8 µM (inactive) | 15.9 µM (inactive) | –
Cc1cn(C2CC(N(O)Cc3ccccc3)C(CO)O2)c(=O)[nH]c1=O (stereo not drawn) | > 100 µM (inactive) | > 100 µM (inactive) | > 100 µM (inactive) | > 100 µM (inactive) | 5.24 µM (inactive) | > 100 µM (inactive) | > 100 µM (inactive) | > 100 µM (inactive) | > 100 µM (inactive) | > 100 µM (inactive) | > 100 µM (inactive) | > 100 µM (inactive) | > 100 µM (inactive) | – | – | – | > 100 µM (inactive) | > 100 µM (inactive) | > 100 µM (inactive)
Cc1cc(O)c2c(c1)C(=O)c1c(c(O)cc(O)c1-c1c(O)cc(O)c3c1C(=O)c1cc(C)cc(O)c1C3=O)C2=O [SKYRIN] | 32.4 µM (inactive) | 8.99 µM (inactive) | – | – | – | 8.36 µM (inactive) | 5.26 µM (inactive) | 15.8 µM (inactive) | 3.07 µM (inactive) | 11.9 µM (inactive) | 7.11 µM (inactive) | 14.4 µM (inactive) | 7.6 µM (inactive) | 16.8 µM (inactive) | 13.1 µM (inactive) | 14.4 µM (inactive) | 13.9 µM (inactive) | 10.9 µM (inactive) | –
